Values quoted from earlier work, collected in US20140199405A1, “METHOD FOR TREATING CANCER BASED ON MUTATION STATUS OF K-RAS” (priority 2013, published 2014).

What was measured:
[1] = tested on: locally advanced pancreatic cancer; conditions: patients with locally advanced pancreatic cancer
pancreatic cancer = conditions: combination versus gemcitabine monotherapy

Row | Structure (SMILES) | median overall survival [1] | median time to disease progression [1] | median overall survival (pancreatic cancer) | median progression free survival (pancreatic cancer)
1 | Nc1ccn([C@@H]2O[C@H](CO)[C@@H](O)C2(F)F)c(=O)n1 [gemcitabine] | 5.7 months | 2.1 months | 6.0 months | 3.5 months
2 | O=c1[nH]cc(F)c(=O)[nH]1 [5-FU, 5-fluororuracil] | 4.2 months | 0.9 months |  | 
